Where “and” joins values, the source holds several entries; their conditions need not be identical. Equal entries are not always repeated. Toxic doses and inconclusive results are not listed. The calls were made as follows: active = survival T/C of 150% or more; inactive = T/C below 125% in these data.
System: P388 leukemia ip, CD2F1 mice, survival T/C
Experiment: NCI In Vivo Anticancer Drug Screen. Data for tumor model P388 Leukemia (intraperitoneal) in CD2F1 (CDF1) mice
Conditions: endpoint: median survival time, higher = longer survival
How it was run: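 Mice carrying the transplanted tumor received test compound or vehicle. Survival was recorded in each group, and the value is the treated-group measurement divided by that of the vehicle-treated control group.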

[1] = dose: 12.5 mg/kg/injection, schedule: Q04DX003 (ip), vehicle: saline
[2] = dose: 25.0 mg/kg/injection, schedule: Q04DX003 (ip), vehicle: saline
[3] = dose: 50.0 mg/kg/injection, schedule: Q04DX003 (ip), vehicle: saline
[4] = dose: 100.0 mg/kg/injection, schedule: Q04DX003 (ip), vehicle: saline with Tween-80
[5] = dose: 12.5 mg/kg/injection, schedule: Q01DX005 (ip), vehicle: saline with Tween-80
[6] = dose: 50.0 mg/kg/injection, schedule: Q01DX005 (ip), vehicle: saline with Tween-80
[7] = dose: 100.0 mg/kg/injection, schedule: Q01DX001 (ip), vehicle: saline with Tween-80
[8] = dose: 50.0 mg/kg/injection, schedule: Q01DX009 (ip), vehicle: saline with Tween-80
[9] = dose: 100.0 mg/kg/injection, schedule: Q01DX005 (ip), vehicle: saline with Tween-80
[10] = dose: 200.0 mg/kg/injection, schedule: Q01DX005 (ip), vehicle: saline with Tween-80
[11] = dose: 12.5 mg/kg/injection, schedule: Q01DX009 (ip), vehicle: Klucel (hydroxypropylcellulose) (HPC)
[12] = dose: 25.0 mg/kg/injection, schedule: Q01DX009 (ip), vehicle: Klucel (hydroxypropylcellulose) (HPC)

Measured: T/C

COC(=O)N1CCc2c([nH]oc2=O)C1
inactive: dose: 50.0 mg/kg/injection, schedule: Q01DX009 (ip), vehicle: saline 90 % of control | dose: 100.0 mg/kg/injection, schedule: Q01DX009 (ip), vehicle: saline 88 % of control | dose: 200.0 mg/kg/injection, schedule: Q01DX009 (ip), vehicle: saline 89 % of control

CC([CH2][Sn]([CH3])([Cl])[c]1ccccc1)c1ccccc1 (centres undefined)
inactive: [1] 98 % of control | [2] 103 % of control | [3] 94 % of control | [4] 98 % of control

CC1=CC(O)C(O)C2(C)C1CC1OC(=O)CC3C(C)C(O)C(=O)C2C13CO (centres undefined)
inactive: [5] 97 % of control | dose: 25.0 mg/kg/injection, schedule: Q01DX005 (ip), vehicle: saline with Tween-80 100 % of control | [6] 102 % of control

Cc1nc2[nH]c(=S)[nH]c(=O)c2nc1C
inactive: dose: 100.0 mg/kg/injection, schedule: Q01DX009 (ip), vehicle: saline with Tween-80 104 % of control | [4] 95 % of control | dose: 200.0 mg/kg/injection, schedule: Q01DX009 (ip), vehicle: saline with Tween-80 100 % of control | dose: 200.0 mg/kg/injection, schedule: Q04DX003 (ip), vehicle: saline with Tween-80 95 % of control | dose: 400.0 mg/kg/injection, schedule: Q01DX009 (ip), vehicle: saline with Tween-80 95 % of control | dose: 400.0 mg/kg/injection, schedule: Q04DX003 (ip), vehicle: saline with Tween-80 95 % of control

CCOC(=O)C1=C(c2ccccc2)Nc2ccccc2[S+]1C (centres undefined)
inactive: dose: 15.0 mg/kg/injection, schedule: Q01DX005 (ip), vehicle: saline 99 % of control | dose: 30.0 mg/kg/injection, schedule: Q01DX005 (ip), vehicle: saline 98 % of control | dose: 60.0 mg/kg/injection, schedule: Q01DX005 (ip), vehicle: saline 98 % of control and 96 % of control

C#C/C=C/CC1OC(C(Br)CC)/C=C\CCC1Cl (centres undefined)
inactive: dose: 2.0 mg/kg/injection, schedule: Q01DX009 (ip), vehicle: Klucel (hydroxypropylcellulose) (HPC) 94 % of control | dose: 4.0 mg/kg/injection, schedule: Q01DX009 (ip), vehicle: Klucel (hydroxypropylcellulose) (HPC) 98 % of control | dose: 8.0 mg/kg/injection, schedule: Q01DX009 (ip), vehicle: Klucel (hydroxypropylcellulose) (HPC) 103 % of control | dose: 16.0 mg/kg/injection, schedule: Q01DX009 (ip), vehicle: Klucel (hydroxypropylcellulose) (HPC) 94 % of control

C=CCN(CC=C)C(=O)CCN1CC1
inactive: dose: 2.5 mg/kg/injection, schedule: Q04DX003 (ip), vehicle: saline 108 % of control | dose: 5.0 mg/kg/injection, schedule: Q04DX003 (ip), vehicle: saline 87 % of control | dose: 10.0 mg/kg/injection, schedule: Q04DX003 (ip), vehicle: saline 104 % of control

CCCCN(CCCC)CC(CN(CC)CC)N(CC)C(=O)Nc1ccccc1 (centres undefined)
inactive: dose: 12.5 mg/kg/injection, schedule: Q01DX005 (ip), vehicle: saline 94 % of control | dose: 25.0 mg/kg/injection, schedule: Q01DX005 (ip), vehicle: saline 93 % of control | dose: 50.0 mg/kg/injection, schedule: Q01DX005 (ip), vehicle: saline 102 % of control and 94 % of control

NC(CCC(=O)NC(CSC(c1ccccc1)(c1ccccc1)c1ccccc1)C(=O)NCC(=O)O)C(=O)O (centres undefined)
inactive: dose: 60.0 mg/kg/injection, schedule: Q01DX005 (ip), vehicle: Klucel (hydroxypropylcellulose) (HPC) 101 % of control and 115 % of control | dose: 120.0 mg/kg/injection, schedule: Q01DX005 (ip), vehicle: Klucel (hydroxypropylcellulose) (HPC) 101 % of control and 113 % of control

CCCCCC1(CCBr)C(=O)NC(=O)NC1=O
inactive: dose: 50.0 mg/kg/injection, schedule: Q01DX005 (ip), vehicle: Klucel (hydroxypropylcellulose) (HPC) 100 % of control | dose: 100.0 mg/kg/injection, schedule: Q01DX005 (ip), vehicle: Klucel (hydroxypropylcellulose) (HPC) 102 % of control | dose: 200.0 mg/kg/injection, schedule: Q01DX005 (ip), vehicle: Klucel (hydroxypropylcellulose) (HPC) 108 % of control

N#Cc1[nH]ncc1[N+](=O)[O-]
inactive: dose: 25.0 mg/kg/injection, schedule: Q01DX001 (ip), vehicle: saline with Tween-80 100 % of control | dose: 50.0 mg/kg/injection, schedule: Q01DX001 (ip), vehicle: saline with Tween-80 106 % of control | [7] 101 % of control

CCOC(=O)C[P+](c1ccccc1)(c1ccccc1)c1ccccc1
inactive: dose: 3.3 mg/kg/injection, schedule: Q01DX009 (ip), vehicle: saline sonified 95 % of control | dose: 6.25 mg/kg/injection, schedule: Q01DX009 (ip), vehicle: saline sonified 90 % of control | dose: 12.5 mg/kg/injection, schedule: Q01DX009 (ip), vehicle: saline sonified 100 % of control | dose: 25.0 mg/kg/injection, schedule: Q01DX009 (ip), vehicle: saline sonified 100 % of control

CC1(C)CC([N+](C)(C)CCCCCC[N+](C)(C)C2CC(C)(C)N(O)C(C)(C)C2)CC(C)(C)N1O
inactive: [1] 105 % of control | [2] 100 % of control | [3] 103 % of control and 108 % of control

Cc1cccc(Nc2ccccc2C(=O)O)c1C
inactive: dose: 6.25 mg/kg/injection, schedule: Q01DX009 (ip), vehicle: saline with Tween-80 103 % of control | dose: 12.5 mg/kg/injection, schedule: Q01DX009 (ip), vehicle: saline with Tween-80 98 % of control | dose: 25.0 mg/kg/injection, schedule: Q01DX009 (ip), vehicle: saline with Tween-80 111 % of control | [8] 101 % of control

O=C[O-].[NH2-].[NH2-].[NH2-].[NH2-].[NH2-].[O-][Cl+3]([O-])([O-])O.[Ru+8]
inactive: dose: 1.56 mg/kg/injection, schedule: Q04DX003 (ip), vehicle: saline 105 % of control | dose: 3.13 mg/kg/injection, schedule: Q04DX003 (ip), vehicle: saline 104 % of control | dose: 6.25 mg/kg/injection, schedule: Q04DX003 (ip), vehicle: saline 124 % of control

O=C(NCCCl)N1CCC(CN=c2cc3n(-c4ccc(Cl)cc4)c4ccccc4nc-3cc2Nc2ccc(Cl)cc2)CC1
inactive: dose: 7.5 mg/kg/injection, schedule: Q01DX005 (ip), vehicle: saline with Tween-80 88 % of control | dose: 15.0 mg/kg/injection, schedule: Q01DX005 (ip), vehicle: saline with Tween-80 88 % of control | dose: 120.0 mg/kg/injection, schedule: Q01DX005 (ip), vehicle: saline with Tween-80 94 % of control | dose: 240.0 mg/kg/injection, schedule: Q01DX005 (ip), vehicle: saline with Tween-80 97 % of control

Cc1cc(C)c2ccc(C)c(N)c2n1
inactive: [6] 99 % of control | [9] 92 % of control | [10] 99 % of control

O=c1c(N=Nc2ccc(S(=O)(=O)Nc3nccs3)cc2)c(O)n(-c2ccccc2)n1-c1ccccc1
inactive: [11] 88 % of control | [12] 87 % of control and 93 % of control | dose: 50.0 mg/kg/injection, schedule: Q01DX009 (ip), vehicle: Klucel (hydroxypropylcellulose) (HPC) 90 % of control and 91 % of control and 92 % of control

O=C(Nc1ccc(Sc2ccc(N=Nc3c(O)c(S(=O)(=O)O)cc4cc(S(=O)(=O)O)ccc34)cc2)cc1)c1ccc(N=Nc2ccc3c(S(=O)(=O)O)cccc3c2O)cc1
inactive: [6] 101 % of control | [9] 102 % of control | [10] 95 % of control

COc1ccc(C[Se][Se]Cc2ccc(OC)cc2)cc1
inactive: dose: 6.25 mg/kg/injection, schedule: Q01DX009 (ip), vehicle: Klucel (hydroxypropylcellulose) (HPC) 99 % of control | [11] 108 % of control | [12] 106 % of control

CCOC(=O)/C(C#N)=C(\C)c1ccccc1
inactive: [8] 99 % of control

O=Cc1c2cnc(c1O)CSCCCCSC2
inactive: dose: 100.0 mg/kg/injection, schedule: Q04DX002 (ip), vehicle: saline with Tween-80 99 % of control | dose: 200.0 mg/kg/injection, schedule: Q04DX002 (ip), vehicle: saline with Tween-80 96 % of control | dose: 400.0 mg/kg/injection, schedule: Q04DX002 (ip), vehicle: saline with Tween-80 101 % of control

CC(=O)NCCn1nc(-c2ccc(Cl)cc2)c(-c2ccc(Cl)cc2)c(C(C)=O)c1=O
inactive: dose: 6.25 mg/kg/injection, schedule: Q01DX005 (ip), vehicle: saline with Tween-80 103 % of control | [5] 103 % of control

O=C1NC(=O)C(O)(C2=C(O)CCCC2=O)C(=O)N1
inactive: [6] 99 % of control | [9] 103 % of control | [10] 94 % of control

CCCn1c(Cl)c(/C=N\Nc2ccccc2[N+](=O)[O-])c2ccccc21
inactive: [7] 92 % of control | dose: 200.0 mg/kg/injection, schedule: Q01DX001 (ip), vehicle: saline with Tween-80 92 % of control | dose: 400.0 mg/kg/injection, schedule: Q01DX001 (ip), vehicle: saline with Tween-80 93 % of control

From PubChem BioAssay AID330 (DTP/NCI, 2004)
